Test results: the supplement of paper PMC10307832

Tests used:
Test in all cases: relative viability (nuclei count vs DMSO), 5 days (fraction); higher = more cells survive
[1] = compound: COc1cc(Nc2ncc(F)c(Nc3ccc4c(n3)NC(=O)C(C)(C)O4)n2)cc(OC)c1OC [R406] + Cc1cc(Nc2cc(N3CCN(C)CC3)nc(Sc3ccc(NC(=O)C4CC4)cc3)n2)n[nH]1 [Tozasertib] (partner 0.1 µM)
Outline: (§1)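 A single step with final 0.05% Triton X-100, 1% formaldehyde and 1 ug/ml Hoechst fixed the cells and stained nuclei 5 days after treatment. Lung cancer cell lines in 1536-well plates had been treated by pin tool the day after seeding with one drug alone or a fixed anchor-drug dose plus five library-drug doses (not always all listed) in √10 steps, and nuclei were counted on 4× images. Relative viability is the ratio of nuclei in treated wells to nuclei in vehicle wells, taken as the median of duplicate plates.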

[2] = compound: O=C(/C=C/c1cccnc1)NCCCCC1CCN(C(=O)c2ccccc2)CC1 [Daporinad] + CC(=O)c1c(C)c2cnc(Nc3ccc(N4CCNCC4)cn3)nc2n(C2CCCC2)c1=O [Palbociclib] (partner 0.5 µM)
Outline: as §1

[3] = compound: O=C(/C=C/c1cccnc1)NCCCCC1CCN(C(=O)c2ccccc2)CC1 [Daporinad] + CC1(C)CCC(c2ccc(Cl)cc2)=C(CN2CCN(c3ccc(C(=O)NS(=O)(=O)c4ccc(N[C@H](CCN5CCOCC5)CSc5ccccc5)c(S(=O)(=O)C(F)(F)F)c4)cc3)CC2)C1 [Navitoclax] (partner 0.5 µM)
Outline: as §1

[4] = compound: O=C(/C=C/c1cccnc1)NCCCCC1CCN(C(=O)c2ccccc2)CC1 [Daporinad] + C[C@]1(O)C[C@@H](c2nc(-c3ccc4ccc(-c5ccccc5)nc4c3)c3c(N)nccn32)C1 [Linsitinib] (partner 1 µM)
Outline: as §1

Cell Line | relative viability ([1]; first compound 0.08 µM) | relative viability ([1]; first compound 0.253 µM) | relative viability ([1]; first compound 0.8 µM) | relative viability ([1]; first compound 2.53 µM) | relative viability ([1]; first compound 8 µM) | relative viability ([2]; first compound 0.0005 µM) | relative viability ([2]; first compound 0.001581 µM) | relative viability ([2]; first compound 0.005 µM) | relative viability ([2]; first compound 0.01581 µM) | relative viability ([3]; first compound 0.0005 µM) | relative viability ([3]; first compound 0.001581 µM) | relative viability ([3]; first compound 0.005 µM) | relative viability ([3]; first compound 0.01581 µM) | relative viability ([4]; first compound 0.0005 µM) | relative viability ([4]; first compound 0.001581 µM) | relative viability ([4]; first compound 0.005 µM) | relative viability ([4]; first compound 0.01581 µM)
PC-14 | 0.57 | 0.681 | 0.623 | 0.546 | 0.603 | 0.564 | 0.522 | 0.601 | 0.339 | 1.05 | 1 | 0.875 | 0.721 | 1.03 | 1.04 | 0.884 | 0.905
NCI-H1755 | 0.463 | 0.529 | 0.605 | 0.504 | 0.331 | 0.456 | 0.441 | 0.415 | 0.431 | 0.987 | 0.974 | 1.04 | 0.989 | 1.02 | 0.998 | 0.977 | 0.988
HCC-78 | 0.513 | 0.432 | 0.563 | 0.404 | 0.417 | 0.449 | 0.466 | 0.522 | 0.497 | 0.644 | 0.935 | 0.842 | 1.05 | 0.541 | 0.619 | 0.767 | 0.921
IA-LM |  |  |  |  |  |  |  |  |  | 0.733 | 0.809 | 0.772 | 0.599 | 0.531 | 0.866 | 0.437 | 0.553
NCI-H322M | 0.496 | 0.465 | 0.489 | 0.343 | 0.283 | 0.495 | 0.565 | 0.449 | 0.512 | 1.25 | 1.43 | 1.25 | 0.995 | 0.995 | 1.03 | 0.926 | 0.925
NCI-H3122 | 0.491 | 0.415 | 0.34 | 0.328 | 0.45 | 0.168 | 0.205 | 0.192 | 0.177 | 1.01 | 1.02 | 1.02 | 0.987 | 1.01 | 1.01 | 1.02 | 1
NCI-H1623 | 0.447 | 0.419 | 0.442 | 0.429 | 0.401 |  |  |  |  |  |  |  |  |  |  |  | 
NCI-H661 | 0.337 | 0.322 | 0.32 | 0.348 | 0.324 | 0.389 | 0.459 | 0.419 | 0.359 |  |  |  |  | 0.488 | 0.555 | 0.561 | 0.405
NCI-H596 | 0.868 | 1.01 | 1.05 | 0.513 | 0.267 |  |  |  |  | 1.01 | 1.05 | 1.3 | 0.291 | 1.06 | 1.15 | 1.19 | 0.477
NCI-H650 | 0.701 | 0.885 | 0.699 | 0.614 | 0.599 | 0.351 | 0.423 | 0.329 | 0.367 |  |  |  |  | 0.832 | 1.3 | 0.883 | 1.16
